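The compound was tested at five concentrations on cells cultured in 96-well plates, with a 48-hour exposure period. TGI: total growth inhibition.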 Where a SMILES comes first, the peptide text is derived from it. [ ]: non-standard residue; d: D form. The star is where a group is joined. Bn2Val = CC(C)[C@@H](C(=O)*)N(Cc1ccccc1)Cc1ccccc1; NH(3,4-diMeO-benzyl) = COc1ccc(CN*)cc1OC; NMeV = CN[C@H](C(=O)O)C(C)C
Columns and labels:
Assay in all cases: growth of human tumour cells (NCI), 48 h
[1] = system: OVCAR-4 ovarian
[2] = system: OVCAR-5 ovarian
[3] = system: UACC-62 melanoma
[4] = system: SNB-75 CNS
[5] = system: T-47D breast
[6] = system: HS 578T breast
[7] = system: HCT-15 colon
[8] = system: NCI-H460 lung
[9] = system: HOP-62 NSCLC
[10] = system: SF-539 CNS
[11] = system: NCI-H226 lung
[12] = system: SK-MEL-2 melanoma
[13] = system: RPMI-8226 leukemia
[14] = system: COLO 205 colon
[15] = system: NCI/ADR-RES ovarian
[16] = system: IGROV1 ovarian
[17] = system: SR leukemia
[18] = system: SK-MEL-28 melanoma
[19] = system: ACHN renal
[20] = system: A498 renal

SMILES	TGI [1] [µM]	TGI [2] [µM]	TGI [3] [µM]	TGI [4] [µM]	TGI [5] [µM]	TGI [6] [µM]	TGI [7] [µM]	TGI [8] [µM]	TGI [9] [µM]	TGI [10] [µM]	TGI [11] [µM]	TGI [12] [µM]	TGI [13] [µM]	TGI [14] [µM]	TGI [15] [µM]	TGI [16] [µM]	TGI [17] [µM]	TGI [18] [µM]	TGI [19] [µM]	TGI [20] [µM]
O=Nc1c(NO)ccc2nn(-c3ccccc3)nc12	> 100	37.6	9.21	> 100	> 100	> 100	> 100	> 100	> 100	18.4	6.64	> 100	> 100	> 100	> 100	49.4	> 100	43.3	47.7	
CC1C(O)Oc2cc3c(cc2C1c1ccccc1O)OCO3 (stereo not drawn)		> 100	> 100	87.4	> 100	46.6	> 100	64.1	> 100	79.2	69.2	83.8	48.1	31		> 100	25.2	84	> 100	82.7
N#CCc1nc(-c2cc3c(ccc4ccccc43)oc2=O)cs1	60.4	> 100	68.4	20.4	> 100	63.4	> 100	> 100	32.2	51.4	81.2	72.4	> 100	> 100	70.2	43.7		> 100	79.1	
Cc1nnc2n1N=C(c1cc(F)c(Cl)cc1Cl)/C(=C/c1ccc3c(c1)OCO3)S2	> 100	> 100	> 100		> 100	> 100	> 100	> 100	> 100	> 100	> 100	> 100	> 100	> 100	> 100	> 100		> 100	> 100	> 100
CC1=C[C@@H]2[C@@H](CC(CO)=C[C@H]3[C@@H]4C(C)(C)[C@]4(OCC(C)C)[C@H](OCC(C)C)[C@@H](C)[C@]23O)C1=O	> 8.32	8.23	3.2	> 8.32	> 8.32	2.71	2.77	> 8.32	2.8	2.87	> 4.53	> 6.43		1.4	8.31	4.8	3.32	3.38	3.4	> 4.44
COc1cccc(C2c3cc4c(cc3OC(N3CCCCC3)C2C)OCO4)c1OC (stereo not drawn)		79.4	33.6	66.7	54.2	29.5	26.3	27.9	50.1	33.9	34.8	26	21.6	29		61.7	4.02	46.7	35.1	28.4
CC1=CC(=O)/C(=C/n2c(=S)[nH]c3ccc([N+](=O)[O-])cc32)C(=O)O1	> 100	> 100	> 100	> 100	> 100	> 100	> 100	> 100	> 100	> 100	> 100	> 100	> 100	> 100	> 100	> 100	> 100	> 100	> 100	
COc1ccc(CNC(=O)[C@@H]2CCCN2C(=O)[C@@H]2CCCN2C(=O)[C@H](C(C)C)N(C)C(=O)[C@@H](NC(=O)[C@H](C(C)C)N(Cc2ccccc2)Cc2ccccc2)C(C)C)cc1OC (Bn2Val-V[NMeV]PP-{NH(3,4-diMeO-benzyl)})	42.6	34	29.7	25.7	48.3	> 100	31.4	> 60.5	32.3	34	33.4	34.5		38.7	48.2	13.4	> 100	38.5	28	31.6
O=C(/C=C/c1ccc2c(c1)OCO2)CC(=O)/C=C/c1ccc2c(c1)OCO2	68.5	> 100	> 100	> 100	> 100	> 100	> 100	> 100	> 100	> 100	> 100	> 100	> 100	> 100	> 100	68.2	79.8		> 100	
Oc1cccc2c1[nH]c1c(C3=C[C@@]4(O)CC/C=C\CCCCN5CC[C@@H]3[C@]3(CC6/C=C\CCCCN6[C@H]34)C5)nccc12 (stereo partly drawn)	2.79	2.81	3.26	3.86	3.19	3.69	1.86	2.19	1.85	3.74	5.17	2.97	2.6	3.71	6.31	3.18		3.73	4.1	7.65
COC(=O)[C@H](COC(=O)/C=C/c1ccc(OC(C)=O)c(OC(C)=O)c1)NC(=O)/C=C/c1ccc(OC(C)=O)c(OC(C)=O)c1	38.9	49.7	31.9	30.1	14.4	49.7	70.6	53.9	34.3	> 100	56.7	35.2	> 100	37	> 100	43		94	42.2	> 100
O=S(=O)(O)C(Cc1nc2ccccc2[nH]1)S(=O)(=O)OCCC1S(=O)(=O)OCCOS1(=O)=O (stereo not drawn)	> 100	> 100	> 100	> 100	> 100	> 100	> 100	> 100	> 100	> 100	> 100	> 100	> 100	> 100	> 100	> 100		> 100	> 100	> 100
O=[N+]([O-])c1ccc(C(=Nc2ccccc2)SSC(=Nc2ccccc2)c2ccc([N+](=O)[O-])o2)o1	3	5.04	3.4	3.45	5.79	5.34	2.2	> 25.5	6.23	4.01	56.4	6.15		2.44	7.43	3.51	> 100	7.04	5.21	
CCc1ccccc1NC(=O)C(=O)CC(=O)c1sc(Nc2ccccc2Cl)nc1C	> 100	> 100	> 100		> 100	> 100	92	46.1	> 100	66.1	> 100	56.1	65.6	52.3	> 100	> 100		> 100	> 100	
CCOC(=O)c1cc2cc(C)cc(C(=O)c3ccc([N+](=O)[O-])cc3)c2[nH]1	> 100	> 100	> 100	> 100	> 100	> 100	> 100	> 100	> 100	> 100	> 100	> 100	> 100	> 100		> 100		> 100	> 100	> 100
CCOC(=O)c1ccc(N=c2oc3ccc(OC)cc3cc2-c2nc3ccccc3[nH]2)cc1	> 100	> 100	> 100	65.2	> 100	> 100	> 100	> 100	> 100	6.03	8.58	> 100	> 100	> 100	> 100	> 100	> 100	> 100	> 100	
CCn1c2ccccc2c2cc(NC(=O)c3c(NCCNCCO)nc(=O)[nH]c3C)ccc21	> 100	> 100	> 100	> 100	> 100	> 100	> 100	> 100	> 100	> 100	> 100			> 100	> 100	> 100		> 100	> 100	> 100
COC(=O)c1ccccc1C1CN=NC12Cc1cc(C)cc(C)c1C2=O (stereo not drawn)	> 100	> 100	> 100	> 100	> 100	> 100	76.6	> 100	> 100	> 100	> 100	> 100		> 100	> 100	> 100		> 100	> 100	66.2
O=C(CC(=O)N1N=C(N(c2ccccc2)c2ccccc2)CC1c1ccccc1)Nc1ccccc1 (stereo not drawn)	> 100	> 100	> 100	> 100	> 100	> 100	> 100	> 100	> 100	> 100	> 100	> 100	> 100	> 100	> 100	> 100	> 100	> 100	> 100	
COC(=O)C1(C(=O)OC)CC2=C(S(=O)(=O)c3ccccc3)C[C@H](C#N)[C@H]2C1	> 100	> 100	> 100	> 100	> 100	> 100	> 100		> 100	> 100	> 100	> 100		> 100	> 100	> 100		> 100	> 100	> 100
O=C(c1ccccc1)C1C[C@H]2CO[C@H](c3ccccc3)N2C1=O (stereo partly drawn)	> 100	> 100	> 100	> 100	> 100	> 100	> 100	> 100		> 100	> 100	> 100	> 100	> 100	> 100	> 100	> 100	> 100	> 100	
COc1ccc(N=CN(C)C)c(C)c1	73.6	> 100	42.6	63.9	68.4	19.8	> 100		45.4	82.1	64.5	30.4	> 100	28	> 100	> 100		85.6	66.3	60.5
COc1ccc(-n2sc3ncc([N+](=O)[O-])cc3c2=O)cc1	> 100	> 100	> 100	> 100	> 100	> 100	> 100	> 100	> 100	> 100	> 100	> 100	> 100	> 100	> 100	> 100	> 100	> 100	> 100	
N#CC(c1ccccc1)N(CCOCCOCCN(C(=O)c1cccc2ccccc12)C(C#N)c1ccccc1)C(=O)c1cccc2ccccc12 (stereo not drawn)	> 100	> 100	> 100	> 100	> 100	> 100	> 100	> 100		> 100	> 100	> 100		> 100	> 100	> 100		> 100	> 100	> 100
